Values of other authors in patent US20210230662A1, “Methods for the Treatment of Solid Tumor Cancers Using Illudins and Biomarkers” (Lantern Pharma Inc., priority 2018, published 2021).

How the values were obtained:
tumor cells = conditions: at certain doses
normal cells = conditions: at certain doses

For `CC1=C(CO)C2=C(C)C3(CC3)[C@@](C)(O)C(=O)C2=C1` [Irofulven, HydroxyMethylAcylfulvene], the “susceptibility of tumor cells to dual damaging activity” value (tumor cells) is listed as “highly susceptible” and the “response of normal cells to the cell-killing drug” value (normal cells) is listed as “marginal response”.
